From paper PMC7156629, “Fluorescence anisotropy assays for high throughput screening of compounds binding to lipid II, PBP1b, FtsW and MurJ” (Scientific Reports, 2020)
Entries after “also recorded” stand apart in the source; their conditions may differ. Like-named read-outs stand apart in the source and are kept apart here.

Columns and labels:
[1] = FA direct binding of antibiotics/compounds to NBD-lipid II probe; conditions: for Kd: antibiotic binding to probe 0.33 µM, 10 mM Tris-HCl pH 7.5, 3% DMSO; for Effect on FA signal of the NBD-lipid II probe (direct binding, no protein): increasing compound concentrations, probe 0.33 µM
Method: Serial dilutions of each antibiotic in 10 mM Tris-HCl pH 7.5 and 3% DMSO were prepared in 384-well plates (30 µL) in triplicates. […] Blank samples without antibiotic were also prepared for background fluorescence estimation. […] The data were analysed as described above with [R] and [RL] are, respectively, the equilibrium concentration of the compound and the compound-probe complex.

[2] = ref Lo, M. C. et al. J. Am. Chem. Soc. 122 (2000); read-out: IC50 (Lipid II), values from the literature; cited from earlier work
[3] = read-out: Kd (Lipid II), values from the literature, cited from earlier work
PBP1b [4] = target: T1, PBP1b (Escherichia coli, UniProt P02919); experiment: Fluorescence anisotropy (FA) direct binding of NBD-lipid II probe to PBP1b; parameters: made in house; species or system E. coli; conditions: probe 0.33 µM
T1 sequence (P02919 46-844): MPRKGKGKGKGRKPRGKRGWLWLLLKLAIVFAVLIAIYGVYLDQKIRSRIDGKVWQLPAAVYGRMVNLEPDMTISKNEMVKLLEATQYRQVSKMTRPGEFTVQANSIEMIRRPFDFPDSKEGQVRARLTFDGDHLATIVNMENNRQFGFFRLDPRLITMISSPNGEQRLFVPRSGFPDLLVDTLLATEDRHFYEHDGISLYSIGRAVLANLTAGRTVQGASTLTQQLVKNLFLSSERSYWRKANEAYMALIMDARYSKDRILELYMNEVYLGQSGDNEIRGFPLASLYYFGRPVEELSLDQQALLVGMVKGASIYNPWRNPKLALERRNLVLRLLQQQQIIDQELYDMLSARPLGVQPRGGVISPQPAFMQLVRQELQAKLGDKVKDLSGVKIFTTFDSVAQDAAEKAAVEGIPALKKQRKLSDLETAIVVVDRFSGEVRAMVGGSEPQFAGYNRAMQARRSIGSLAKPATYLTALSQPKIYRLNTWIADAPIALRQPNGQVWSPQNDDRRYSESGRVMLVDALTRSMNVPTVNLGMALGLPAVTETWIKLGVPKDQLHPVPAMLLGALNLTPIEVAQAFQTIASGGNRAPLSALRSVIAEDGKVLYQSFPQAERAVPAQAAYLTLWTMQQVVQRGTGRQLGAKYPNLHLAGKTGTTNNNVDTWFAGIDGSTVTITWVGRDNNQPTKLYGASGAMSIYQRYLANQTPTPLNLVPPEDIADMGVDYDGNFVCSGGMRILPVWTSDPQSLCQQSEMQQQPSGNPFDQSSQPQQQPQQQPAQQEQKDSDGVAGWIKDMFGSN
Method: (§1) Fluorescent anisotropy (FA) experiments were performed in a black 384-well plate (Greiner Bio-One Polystyrene Non-Binding Flat Bottom) in triplicates. Serial dilutions of the protein (PBP1bγ, FtsW, FtsW-PBP3 or MurJ) in the appropriate buffer and the NBD-lipid II probe was added at a 0.33 µM final concentration. FtsN was used as a negative control under the same conditions. […] Fluorescence polarization (FP) and anisotropy (A) values were calculated using the equations FP = (I|| − G·I┴)/I||+ G·I┴) and A = 2· FP/3-FP respectively, where I|| is the fluorescence intensity of emitted light parallel to excitation, I┴ is the fluorescence intensity of emitted light perpendicular to excitation, and G is the correction factor that correct for instrument bias. The G factor is experimentally determined using the probe alone. […] For Kd determination, the fluorescence anisotropy data were analysed by nonlinear curve fitting to the Eq. (1) using GraphPad Prism 6.0 software[27].1 (A−Amin)/(Amax−Amin)=[RL]=(Kd+[R]+[L])−[(Kd+R]+[L])^2−4[R][L]]^1/2 Where A, Amin, Amax are the observed, the minimum and the maximum anisotropy, respectively, and [R], [L] and [RL] are the equilibrium concentration of the protein, the probe; and the protein-probe complex, respectively; Kd is the dissociation constant between the protein and the probe.

FtsN = target: T2, FtsN (Escherichia coli, UniProt P29131); experiment: FA direct binding of NBD-lipid II probe to FtsN (negative control); conditions: FtsN as negative control
T2 construct: made in house
T2 sequence (P29131 whole entry): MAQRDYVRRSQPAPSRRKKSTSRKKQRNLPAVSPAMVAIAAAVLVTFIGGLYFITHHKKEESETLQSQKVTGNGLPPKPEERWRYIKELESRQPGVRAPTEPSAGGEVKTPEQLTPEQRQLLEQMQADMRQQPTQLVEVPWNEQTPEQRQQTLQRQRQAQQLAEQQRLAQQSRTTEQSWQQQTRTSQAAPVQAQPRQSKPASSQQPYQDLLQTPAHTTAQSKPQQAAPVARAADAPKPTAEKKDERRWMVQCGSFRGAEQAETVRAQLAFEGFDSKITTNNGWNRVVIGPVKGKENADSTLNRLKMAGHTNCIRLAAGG
Method: as §1

FtsW-PBP3 [5] = target: T3, FtsW-PBP3 (Escherichia coli, UniProt P0ABG4); experiment: FA direct binding of NBD-lipid II probe to FtsW-PBP3 complex; parameters: made in house; species or system E. coli; conditions: probe 0.33 µM
T3 sequence (P0ABG4 whole entry): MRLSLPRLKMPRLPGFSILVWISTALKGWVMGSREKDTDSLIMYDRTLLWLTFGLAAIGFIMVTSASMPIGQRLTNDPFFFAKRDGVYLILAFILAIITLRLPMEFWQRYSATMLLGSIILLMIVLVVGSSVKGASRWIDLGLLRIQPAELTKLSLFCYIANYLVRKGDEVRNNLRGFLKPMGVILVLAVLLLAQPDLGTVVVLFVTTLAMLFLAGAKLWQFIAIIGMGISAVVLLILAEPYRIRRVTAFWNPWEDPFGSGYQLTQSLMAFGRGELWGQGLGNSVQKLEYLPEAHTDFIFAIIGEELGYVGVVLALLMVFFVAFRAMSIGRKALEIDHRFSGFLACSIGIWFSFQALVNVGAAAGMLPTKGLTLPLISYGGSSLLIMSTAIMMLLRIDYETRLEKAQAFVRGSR
T3 sequence (P0AD68 1-577, further chain): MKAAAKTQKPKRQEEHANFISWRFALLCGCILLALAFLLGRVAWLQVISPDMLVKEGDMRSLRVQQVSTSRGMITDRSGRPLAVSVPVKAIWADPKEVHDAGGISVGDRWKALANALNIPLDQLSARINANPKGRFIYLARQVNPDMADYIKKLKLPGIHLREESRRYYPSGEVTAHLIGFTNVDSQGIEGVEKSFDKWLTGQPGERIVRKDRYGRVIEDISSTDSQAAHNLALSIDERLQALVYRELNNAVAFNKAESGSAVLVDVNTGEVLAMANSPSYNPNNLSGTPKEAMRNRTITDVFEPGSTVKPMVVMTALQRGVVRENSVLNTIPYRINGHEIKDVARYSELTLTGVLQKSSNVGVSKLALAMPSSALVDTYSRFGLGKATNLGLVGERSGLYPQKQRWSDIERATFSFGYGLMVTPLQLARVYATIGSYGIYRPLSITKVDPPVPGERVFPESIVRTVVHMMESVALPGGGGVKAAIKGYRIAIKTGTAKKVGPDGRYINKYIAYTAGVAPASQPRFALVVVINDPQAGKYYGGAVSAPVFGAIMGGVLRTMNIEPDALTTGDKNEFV
Method: as §1

MurJ [6] = target: T4, MurJ (Escherichia coli, UniProt P0AF16); experiment: FA direct binding of NBD-lipid II probe to MurJ; parameters: made in house; species or system E. coli; conditions: probe 0.33 µM
T4 sequence (P0AF16 whole entry): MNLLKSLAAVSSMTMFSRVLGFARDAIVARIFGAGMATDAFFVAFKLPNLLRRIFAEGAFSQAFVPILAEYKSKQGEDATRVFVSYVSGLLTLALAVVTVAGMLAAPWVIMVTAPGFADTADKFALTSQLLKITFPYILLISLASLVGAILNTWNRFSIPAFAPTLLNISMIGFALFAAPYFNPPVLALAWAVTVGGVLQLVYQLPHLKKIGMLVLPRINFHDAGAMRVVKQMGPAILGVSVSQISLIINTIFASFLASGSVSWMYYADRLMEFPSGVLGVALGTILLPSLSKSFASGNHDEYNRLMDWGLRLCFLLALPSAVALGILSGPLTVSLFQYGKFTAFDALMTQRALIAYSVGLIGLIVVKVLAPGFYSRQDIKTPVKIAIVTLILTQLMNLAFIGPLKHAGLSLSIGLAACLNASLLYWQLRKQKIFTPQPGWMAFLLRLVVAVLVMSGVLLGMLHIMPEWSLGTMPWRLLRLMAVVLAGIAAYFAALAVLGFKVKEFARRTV
Method: as §1

FtsW [7] = target: T5, FtsW (Escherichia coli, UniProt P0ABG4); experiment: FA direct binding of NBD-lipid II probe to FtsW; parameters: made in house; species or system E. coli; conditions: probe 0.33 µM
T5 sequence (P0ABG4 whole entry): as the sequence (P0ABG4 whole entry) above
Method: as §1

FtsW [8] = target: T5, FtsW; experiment: FA competition assay, FtsW:NBD-lipid II; conditions: read-out: Ki values (unlabelled-Lipid II); displacement of probe (0.33 µM) from FtsW (~1 µM)
Method: (§2) Fixed concentrations of NBD-lipid II (0.33 µM) and proteins (~1 µM, 50–80% FA saturation[29]) were used. Serial dilutions of each antibiotic,unlabelled lipid II, or control compounds were prepared in 384-well plates in triplicates. Blank samples without proteins were also prepared for background fluorescence estimation. The mixtures (30 µL) were allowed to reach equilibrium for 20 min at room temperature with gentle shaking and the FA signals were recorded at 21 °C using an Infinite F Plex (Tecan, Männedorf, Switzerland) microplate reader equipped with polarization filters with excitation and emission wavelengths at 485 nm and 535 nm respectively. The data were plotted FA in millianisotropy units (mA) as a function of test compound concentration in µM. For the analysis of the completion data, fluorescence anisotropy values were fitted to the Eq. (3) using GraphPad Prism 6.0 software[30].3 [RL]=[R]/[1+Kd/[L](1+[C]/)Ki] Where [RL] is concentration of the receptor-probe complex; [R] is the concentration of the protein; [L] is the concentration of the probe; [C] is the concentration of test compound; Kd is the dissociation constant between the receptor and the probe (determined above); Ki is dissociation constant between the test compound and its target.

MurJ [9] = target: MurJ; parameters: method as in Bolla, J. R. et al. Nat. Chem. 10 (2018); conditions: native mass spectrometry, ref Bolla, J. R. et al. Nat. Chem. 10 (2018), read-out: Kd (Lipid II), values from the literature; cited from earlier work
PBP1b [10] = test system: PBP1b; parameters: method as in Terrak, M. et al. Mol. Microbiol. 34 (1999); conditions: ref Terrak, M. et al. Mol. Microbiol. 34 (1999), read-out: Km (Lipid II), values from the literature, cited from earlier work
MurJ [11] = target: T4, MurJ; experiment: FA competition assay, MurJ:NBD-lipid II; conditions: read-out: Ki values (unlabelled-Lipid II); displacement of probe (0.33 µM) from MurJ (~1 µM)
Method: as §2

FtsW-PBP3 [12] = target: T3, FtsW-PBP3; experiment: FA competition assay, FtsW-PBP3:NBD-lipid II; conditions: read-out: Ki values (unlabelled-Lipid II); displacement of probe (0.33 µM) from FtsW-PBP3 (~1 µM)
Method: as §2

PBP1b [13] = target: T1, PBP1b; experiment: FA competition assay, PBP1b:NBD-lipid II; conditions: read-out: Ki values (unlabelled-Lipid II); displacement of probe (0.33 µM) from PBP1b (~1 µM)
Method: as §2

ramoplanin
Kd [1]: 230 ± 50 nM | Effect on FA signal of the NBD-lipid II probe (direct binding, no protein) [1]: induced an increase of FA | IC50 [2]: 300 nM

C=C(C/C=C(\C)CCC=C(C)C)CCC(C)(C)/C=C/CC/C(C)=C/CO[C@@H](COP(=O)(O)O[C@H]1O[C@H](C(N)=O)[C@@](C)(O)[C@H](OC(N)=O)[C@H]1O[C@@H]1O[C@H](CO[C@@H]2O[C@H](CO)[C@@H](O)[C@H](O)[C@H]2O)[C@@H](O[C@@H]2O[C@H](C)[C@@H](O[C@@H]3O[C@H](C(=O)NC4=C(O)CCC4=O)[C@H](O)[C@H](O)[C@H]3O)[C@H](O)[C@H]2NC(C)=O)[C@H](O)[C@H]1NC(C)=O)C(=O)O [moenomycin A, Moenomycin A]
Effect on FA signal of the NBD-lipid II probe (direct binding, no protein) [1]: did not significantly affect the FA signal | Effect on FA signal of the NBD-lipid II probe (direct binding, no protein) ([1]; listed as Moenomycin): no effect on the FA of the probe

CN[C@H](CC(C)C)C(=O)N[C@H]1C(=O)N[C@@H](CC(N)=O)C(=O)N[C@H]2C(=O)N[C@H]3C(=O)N[C@H](C(=O)N[C@H](C(=O)O)c4cc(O)cc(O)c4-c4cc3ccc4O)[C@H](O)c3ccc(c(Cl)c3)Oc3cc2cc(c3O[C@@H]2O[C@H](CO)[C@@H](O)[C@H](O)[C@H]2O[C@H]2C[C@](C)(N)[C@H](O)[C@H](C)O2)Oc2ccc(cc2Cl)[C@H]1O [Vancomycin, vancomycin]
Kd ([3]; ref Münch, D. & Sahl, H.-G. Biochim. Biophys. Acta 1848 (2015)): 500 nM | Kd [1]: 300 ± 100 nM | Effect on FA signal of the NBD-lipid II probe (direct binding, no protein) [1]: induced an increase of FA

CC1(C)S[C@@H]2[C@H](NC(=O)[C@H](N)c3ccccc3)C(=O)N2[C@H]1C(=O)O [Ampicillin]
Effect on FA signal of the NBD-lipid II probe (direct binding, no protein) [1]: no significant effect on the FA of the probe | Effect on FA signal of the NBD-lipid II probe (direct binding, no protein) ([1]; listed as ampicillin): do not bind to the probe

CC(=O)N[C@H]1[C@H](O[C@H]2[C@H](O[C@H](C)C(=O)N[C@@H](C)C(=O)N[C@H](CCC(=O)N[C@@H](CCCCNc3ccc([N+](=O)[O-])c4nonc34)C(=O)N[C@H](C)C(=O)N[C@H](C)C(=O)O)C(=O)O)[C@@H](NC(C)=O)[C@@H](OP(=O)(O)OP(=O)(O)OC/C=C(/C)CC/C=C(/C)CC/C=C(/C)CC/C=C(/C)CC/C=C(/C)CC/C=C(/C)CC/C=C(/C)CC/C=C(/C)CC/C=C(\C)CC/C=C(\C)CCC=C(C)C)O[C@@H]2CO)O[C@H](CO)[C@@H](O)[C@@H]1O [NBD-lipid II, Nitrobenzoxadiazole (NBD)-labelled Lipid II]
Kd (PBP1b [4]): 500 ± 200 nM | Effect of FtsN on FA of the probe (FtsN): had no effect on the FA of the probe | Kd (FtsW-PBP3 [5]): 300 ± 100 nM | Kd (MurJ [6]): 1100 ± 300 nM | Kd (FtsW [7]): 300 ± 100 nM

N[C@@H](Cc1c[nH]c2ccccc12)C(=O)O [tryptophan]
Effect on FA signal of the NBD-lipid II probe (direct binding, no protein) [1]: do not bind to the probe; also recorded: no significant effect on the FA of the probe

nisin (ITSISLCTPGCKTGALMGCNMKTATCHCSIHVSK; not fully specified; Lantibiotic nisin-A; UniProt P13068 24-57, looked up)
Kd ([3]; ref 'T Hart, P. et al. Biochemistry 55 (2016)): 14.6 to 50 nM | Kd [1]: 300 ± 100 nM | Effect on FA signal of the NBD-lipid II probe (direct binding, no protein) [1]: induced an increase of FA

CC(=O)N[C@H]1[C@H](O[C@H]2[C@H](O[C@H](C)C(=O)N[C@@H](C)C(=O)N[C@H](CCC(=O)N[C@@H](CCCCN)C(=O)N[C@H](C)C(=O)N[C@H](C)C(=O)O)C(=O)O)[C@@H](NC(C)=O)[C@@H](OP(=O)(O)OP(=O)(O)OC/C=C(/C)CC/C=C(/C)CC/C=C(/C)CC/C=C(/C)CC/C=C(/C)CC/C=C(/C)CC/C=C(/C)CC/C=C(/C)CC/C=C(\C)CC/C=C(\C)CCC=C(C)C)O[C@@H]2CO)O[C@H](CO)[C@@H](O)[C@@H]1O [unlabelled lipid II, undecaprenyl-pyrophosphoryl-MurNAc(pentapeptide)-(beta-1,4)-GlcNAc]
Ki (FtsW [8]): 5900 ± 1800 nM | Kd (MurJ [9]): 2900 nM | Km (PBP1b [10]; listed as Lipid II): 1.8 ± 0.8 µM | Km (PBP1b [10]; listed as lipid II): ~2 µM | Ki (MurJ [11]): 4600 ± 800 nM | Effect on FA signal of the NBD-lipid II probe (direct binding, no protein) [1]: no direct effect on the FA of the probe | Effect on FA signal of the NBD-lipid II probe (direct binding, no protein) ([1]; listed as unlabeled lipid II): did not significantly affect the FA signal | Ki (FtsW-PBP3 [12]): 6800 ± 1000 nM | Ki (PBP1b [13]): 1400 ± 200 nM
